ChEMBL document CHEMBL1201862, “PubChem BioAssay data set” (2004)
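Interpolation was linear, between the two tested concentrations surrounding the appropriate level; five concentrations were tested over 48 hours in 96-well plates. GI50: concentration for 50% inhibition of growth.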 The source made the active and inactive calls. Rule as the data show it: active = GI50 up to about 1.1 µM and inactive = higher.

Experiments:
Assay in all cases: growth of human tumour cells (NCI), 48 h
OVCAR-5 = tested on: OVCAR-5
IGROV-1 = tested on: IGROV-1
COLO 205 = tested on: COLO 205
SNB-75 = tested on: SNB-75
HCC 2998 = tested on: HCC 2998
TK-10 = tested on: TK-10
UO-31 = tested on: UO-31
NCI-H23 = tested on: NCI-H23
RXF 393 = tested on: RXF 393
Malme-3M = tested on: Malme-3M
NCI-H460 = tested on: NCI-H460
SN12C = tested on: SN12C
NCI-H226 = tested on: NCI-H226
SF-539 = tested on: SF-539
CAKI-1 = tested on: CAKI-1
SF-268 = tested on: SF-268
SK-MEL-2 = tested on: SK-MEL-2
CCRF-CEM = tested on: CCRF-CEM

Measured: GI50

CC1(C)C(=NN=C(N)N)C(C)(C)C1=NN=C(N)N
inactive: OVCAR-5 > 100 µM | IGROV-1 > 100 µM | COLO 205 > 100 µM | SNB-75 > 100 µM | HCC 2998 > 100 µM | TK-10 > 100 µM | UO-31 > 100 µM | NCI-H23 > 100 µM | RXF 393 > 100 µM | Malme-3M > 100 µM | NCI-H460 > 100 µM | SN12C > 100 µM | NCI-H226 > 100 µM | SF-539 > 100 µM | CAKI-1 > 100 µM | SF-268 > 100 µM

COC(=O)C1=C(O)c2cc(OC)c(OC)cc2C(c2ccc(OC)c(OC)c2)C1 (centres undefined)
inactive: OVCAR-5 > 100 µM | IGROV-1 > 100 µM | SK-MEL-2 > 100 µM | COLO 205 38.6 µM | SNB-75 > 100 µM | HCC 2998 > 100 µM | TK-10 > 100 µM | UO-31 > 100 µM | NCI-H23 > 100 µM | RXF 393 > 100 µM | Malme-3M > 100 µM | NCI-H460 66.7 µM | SN12C 51.2 µM | NCI-H226 > 100 µM | SF-539 > 100 µM | CAKI-1 > 100 µM | SF-268 69.3 µM | CCRF-CEM > 100 µM

CNS(=O)(=O)NN(C)S(=O)(=O)c1ccc(OC)cc1
inactive: IGROV-1 > 100 µM | SK-MEL-2 > 100 µM | COLO 205 > 100 µM | SNB-75 > 100 µM | HCC 2998 > 100 µM | TK-10 > 100 µM | UO-31 > 100 µM | NCI-H23 > 100 µM | RXF 393 31 µM | Malme-3M > 100 µM | SN12C > 100 µM | NCI-H226 > 100 µM | SF-539 > 100 µM | CAKI-1 > 100 µM | SF-268 > 100 µM | CCRF-CEM > 100 µM

O=C1N(c2ccccc2)C(=O)C2(SC=NN2Cc2ccccc2)N1c1ccccc1 (centres undefined)
inactive: IGROV-1 > 100 µM | COLO 205 > 100 µM | SNB-75 > 100 µM | HCC 2998 > 100 µM | TK-10 > 100 µM | UO-31 > 100 µM | NCI-H23 > 100 µM | RXF 393 > 100 µM | Malme-3M > 100 µM | NCI-H460 > 100 µM | SN12C > 100 µM | NCI-H226 > 100 µM | SF-539 > 100 µM | CAKI-1 > 100 µM | SF-268 > 100 µM | CCRF-CEM > 100 µM

O=C(O)CCNS(=O)(=O)c1ccc([N+](=O)[O-])cc1
inactive: OVCAR-5 > 100 µM | IGROV-1 > 100 µM | SK-MEL-2 > 100 µM | COLO 205 > 100 µM | SNB-75 > 100 µM | HCC 2998 > 100 µM | TK-10 > 100 µM | UO-31 66.8 µM | NCI-H23 > 100 µM | RXF 393 > 100 µM | Malme-3M > 100 µM | NCI-H460 > 100 µM | SN12C > 100 µM | NCI-H226 > 100 µM | SF-539 > 100 µM | CAKI-1 > 100 µM | SF-268 > 100 µM | CCRF-CEM > 100 µM

C=C(CN(C)C)C(=O)c1ccc(C(=O)C(=C)CN(C)C)cc1
inactive: OVCAR-5 > 100 µM | IGROV-1 > 100 µM | SK-MEL-2 > 100 µM | COLO 205 > 100 µM | SNB-75 > 100 µM | HCC 2998 > 100 µM | TK-10 > 100 µM | UO-31 > 100 µM | NCI-H23 > 100 µM | RXF 393 > 100 µM | Malme-3M > 100 µM | NCI-H460 > 100 µM | SN12C > 100 µM | NCI-H226 > 100 µM | SF-539 > 100 µM | CAKI-1 > 100 µM | SF-268 > 100 µM | CCRF-CEM > 100 µM

COC(=O)C1CC(C(=O)OC)c2nc3cc([N+](=O)[O-])ccc3nc21 (centres undefined)
inactive: OVCAR-5 > 100 µM | IGROV-1 80.7 µM | SK-MEL-2 > 100 µM | COLO 205 49.1 µM | SNB-75 > 61 µM | HCC 2998 30.5 µM | TK-10 > 100 µM | UO-31 33.7 µM | NCI-H23 > 61.5 µM | RXF 393 31.6 µM | Malme-3M > 100 µM | NCI-H460 65.6 µM | SN12C > 79.3 µM | NCI-H226 > 100 µM | SF-539 41 µM | CAKI-1 59.8 µM | SF-268 26.4 µM | CCRF-CEM 9.53 µM

CC1(C)O[C@@H](CCl)C[C@@H](C#N)O1
inactive: OVCAR-5 > 100 µM | IGROV-1 > 100 µM | SK-MEL-2 > 100 µM | COLO 205 > 100 µM | SNB-75 > 100 µM | HCC 2998 > 100 µM | TK-10 > 100 µM | UO-31 > 100 µM | NCI-H23 > 100 µM | RXF 393 > 100 µM | Malme-3M > 100 µM | NCI-H460 > 100 µM | NCI-H226 > 100 µM | SF-539 > 100 µM | CAKI-1 > 100 µM | SF-268 > 100 µM | CCRF-CEM > 100 µM

BrC1=CC=C2NC=CC3=CC=NC1C32 (centres undefined)
inactive: OVCAR-5 19.1 µM | IGROV-1 25.6 µM | SK-MEL-2 18.9 µM | COLO 205 21.6 µM | SNB-75 18.3 µM | HCC 2998 35.1 µM | TK-10 34.1 µM | UO-31 14.5 µM | NCI-H23 7.71 µM | RXF 393 16 µM | Malme-3M 27.7 µM | NCI-H460 2.75 µM | SN12C 18.6 µM | NCI-H226 14.2 µM | SF-539 12.6 µM | SF-268 15.5 µM | CCRF-CEM 6.22 µM

O=C(O)CSc1nnc(Cc2ccccc2)[nH]1
inactive: OVCAR-5 > 100 µM | IGROV-1 > 100 µM | SK-MEL-2 > 100 µM | HCC 2998 > 100 µM | TK-10 > 100 µM | UO-31 > 100 µM | NCI-H23 > 100 µM | RXF 393 > 100 µM | Malme-3M > 100 µM | NCI-H460 > 100 µM | SN12C > 100 µM | NCI-H226 > 100 µM | SF-539 > 100 µM | CAKI-1 > 100 µM | SF-268 > 100 µM | CCRF-CEM > 100 µM

CC1(C)OC(=S)N(c2ccccc2)C12C=Cc1cc3ccccc3nc1S2 (centres undefined)
inactive: OVCAR-5 > 100 µM | IGROV-1 > 100 µM | SK-MEL-2 > 100 µM | COLO 205 84.3 µM | SNB-75 97.1 µM | HCC 2998 > 100 µM | TK-10 > 100 µM | UO-31 73.5 µM | NCI-H23 29.6 µM | RXF 393 55.6 µM | Malme-3M > 100 µM | NCI-H460 84.9 µM | SN12C > 100 µM | NCI-H226 > 100 µM | SF-539 > 100 µM | SF-268 > 100 µM | CCRF-CEM 29.9 µM

Nc1ccc(C(=O)NN2C(=O)C(Cl)C2c2ccccc2Cl)cc1 (centres undefined)
inactive: OVCAR-5 15.2 µM | IGROV-1 13.4 µM | SK-MEL-2 11.3 µM | COLO 205 14.6 µM | SNB-75 16.5 µM | HCC 2998 16.5 µM | TK-10 16.5 µM | UO-31 17 µM | NCI-H23 12.3 µM | RXF 393 5.48 µM | Malme-3M 17.6 µM | NCI-H460 4.45 µM | NCI-H226 16.8 µM | SF-539 7.93 µM | CAKI-1 13.9 µM | SF-268 3.84 µM | CCRF-CEM 1.81 µM
